Values belong to the compound of their own block, whether it stands above or below them. Where a SMILES comes first, the peptide text is derived from it. Bridges are numbered along the chain shown (N, C = ends). [ ]: non-standard residue; d: D form. R8 = C=CCCCCCC[C@@](C)(N)C(=O)O; S5 = C=CCCC[C@](C)(N)C(=O)O
Experiments:
[1] = system: p53 WT AML cell lines; assay: Cell cycle; format: cell-based, human
[2] = system: MOLM13 p53 shRNA knockdown cell lines; assay: Proliferation and apoptosis in isogenic p53 shRNA MOLM13 cell lines; format: cell-based, human; conditions: n = 3
[3] = system: HL60 (p53 null); assay: Proliferation and apoptosis in HL60; format: cell-based, human
[4] = system: primary AML cells; assay: Viability, CFC and apoptosis of primary AML patient cells; format: cell-based, human; conditions: AML n = 4 compared to healthy controls n = 3
[5] = system: MOLM13 cells; assay: MOLM13 AML xenograft in NSG mice; format: in vivo, mouse; conditions: for median survival: vehicle 34
[6] = system: leukemia cell lines with WT p53; assay: Cytotoxicity assay in leukemia cell lines with WT p53; conditions: five cell lines with WT p53; table S2
[7] = system: ML2 cells; assay: ML2 AML xenograft in mice; format: in vivo, mouse; conditions: vehicle 28.5
[8] = system: p53 WT AML cell lines (MOLM13, MOLM14, ML2, OCI/AML3, OCI/AML5); assay: Proliferation by trypan blue exclusion, p53 WT AML cell lines; format: cell-based, human
[9] = system: patient's MDS/AML cells; assay: In vitro treatment of the MDS/AML patient's cells; format: cell-based, human
[10] = system: p53 WT AML cells (primary AML cells, MOLM13); assay: p53 pathway activation; format: cell-based, human
[11] = system: U2OS p21-MS2 cells; assay: Live-cell imaging of p21-MS2 transcription sites; conditions: 5 μM, 4 hours after addition; 54 treated cells; untreated 16%
[12] = system: AML cell lines; assay: Colony-forming capacity and serial replating of AML cell lines
[13] = system: Kasumi-1 (p53 R248Q mutant)
[14] = clinical trials; cited from earlier work
[15] = system: healthy hematopoietic cells; assay: Effects on healthy hematopoiesis in non-tumor-bearing C57/BL6 mice; format: in vivo, mouse; conditions: 20 mg/kg TIW for 4 weeks
[16] = system: SJSA-1 cells; assay: Caspase-Glo 3/7 assay in SJSA-1 cells; format: cell-based, human; conditions: Caspase-Glo 3/7, 48 hours after treatment; n = 2
[17] = system: SJSA-1 cells; assay: p21 protein ELISA in SJSA-1 cells; format: cell-based, human; conditions: 21 hours after treatment, n = 2
[18] = system: circulating CD34+ leukemic blasts; assay: Compassionate-use treatment of one MDS/AML patient; format: in vivo, human
[19] = system: MDMX; assay: MDMX expression in AML cells; conditions: mRNA and protein levels
[20] = cited from earlier work
[21] = system: MDMX; conditions: cited from earlier work
[22] = target: MDM2 (Homo sapiens, UniProt Q00987); assay: Binding assay on immobilized protein surface; conditions: n = 2
[23] = target: T1, MDMX (Homo sapiens, UniProt O15151); assay: Binding assay on immobilized protein surface; conditions: n = 2
T1 sequence (O15151 1-490): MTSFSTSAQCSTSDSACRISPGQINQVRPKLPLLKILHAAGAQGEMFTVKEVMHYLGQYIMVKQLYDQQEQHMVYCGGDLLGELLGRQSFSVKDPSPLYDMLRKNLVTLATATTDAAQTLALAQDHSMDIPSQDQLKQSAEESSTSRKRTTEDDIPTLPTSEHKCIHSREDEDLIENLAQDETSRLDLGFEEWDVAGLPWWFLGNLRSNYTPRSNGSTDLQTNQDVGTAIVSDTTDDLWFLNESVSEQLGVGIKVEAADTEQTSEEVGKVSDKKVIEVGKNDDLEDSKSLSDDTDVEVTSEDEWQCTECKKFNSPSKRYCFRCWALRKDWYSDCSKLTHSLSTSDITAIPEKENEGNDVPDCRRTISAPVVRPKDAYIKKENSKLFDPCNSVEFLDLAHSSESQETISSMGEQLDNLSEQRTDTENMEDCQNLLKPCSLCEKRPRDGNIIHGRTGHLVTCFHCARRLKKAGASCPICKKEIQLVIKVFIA

Sequence of MDM2 (Q00987 whole entry): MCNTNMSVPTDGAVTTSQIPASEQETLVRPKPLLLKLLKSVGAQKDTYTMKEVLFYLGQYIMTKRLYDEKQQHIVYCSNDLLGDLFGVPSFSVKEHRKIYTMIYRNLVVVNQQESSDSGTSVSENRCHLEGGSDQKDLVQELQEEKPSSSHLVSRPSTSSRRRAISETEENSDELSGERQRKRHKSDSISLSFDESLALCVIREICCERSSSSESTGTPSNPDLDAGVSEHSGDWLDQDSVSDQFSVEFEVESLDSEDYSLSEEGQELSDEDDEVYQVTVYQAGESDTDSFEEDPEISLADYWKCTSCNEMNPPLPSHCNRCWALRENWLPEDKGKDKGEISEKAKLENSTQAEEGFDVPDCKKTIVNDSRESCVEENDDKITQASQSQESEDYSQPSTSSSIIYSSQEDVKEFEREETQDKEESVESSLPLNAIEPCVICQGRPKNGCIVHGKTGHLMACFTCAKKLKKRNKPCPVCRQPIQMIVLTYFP

SMILES: CC(=O)N[C@@H](CC(C)C)C(=O)N[C@H](C(=O)N[C@@H](Cc1ccccc1)C(=O)N[C@]1(C)CCCCCC/C=C\CCC[C@@](C)(C(=O)N[C@@H](C)C(=O)N[C@@H](C)C(=O)N[C@@H](C)C(=O)N[C@@H](C)C(=O)N[C@@H](C)C(=O)N[C@H](C)C(N)=O)NC(=O)[C@H](CC(C)C)NC(=O)[C@H](CCC(N)=O)NC(=O)[C@H](C)NC(=O)[C@H](Cc2c[nH]c3ccccc23)NC(=O)[C@H](Cc2ccc(O)cc2)NC(=O)[C@H](CCC(=O)O)NC1=O)[C@@H](C)O [ALRN-6924] (Ac-LTF[R8]EYWAQL[S5]AAAAA[dA]-NH2; staple (Z) 4-11; N-terminus and C-terminus assumed)
apoptosis ([1]; annexin V/DAPI, 24 hours, all five AML cell lines, n = 3): dose-dependent increase in apoptosis | cell cycle ([1]; propidium iodide staining, all p53 WT AML cell lines): induced cell cycle arrest | p53 dependency of growth inhibition and apoptosis [2]: completely p53-dependent manner | cell proliferation ([3]; HL60 (p53 null)): no effect on cell proliferation | apoptosis ([3]; HL60, doses between 5 and 10 μM): did not observe a significant increase in apoptosis | CFC of primary AML PBMCs [4]: inhibited CFC | median survival ([5]; 20 mg/kg IV BIW (group 2)): 83 days | mice alive 300 days after treatment ([5]; 20 mg/kg IV TIW (group 3)): 40% | median survival ([5]; 20 mg/kg IV TIW (group 3)): 151 days | average engraftment of human CD45 leukemic cells ([5]; 20 mg/kg, after 5 weeks of treatment, mouse BM, FACS, vehicle 23.3%): 0.00557% | increase of median survival compared to the control ([5]; 8 or 12 mg/kg IV BIW): 5.5 days | human CD45 leukemic cells in the BM ([5]; 8 or 12 mg/kg IV BIW, day 7 after the start of treatment): dose-dependent decrease in human CD45 leukemic cells | cytotoxic activity [6]: potent activity against all five cell lines with WT p53 | average median survival ([7]; 20 mg/kg IV BIW): 38 days | average median survival ([7]; 20 mg/kg IV TIW): 72 days | sensitivity of OCI/AML3 ([8]; OCI/AML3, suspension culture): less sensitive | cellular proliferation ([8]; trypan blue exclusion, dose- and time-dependent, n = 3): inhibited cellular proliferation | AML-inhibitory effect versus RG7388 ([9]; 10 μM each): greater AML-inhibitory effect than RG7388 | cell proliferation and clonogenic capacity of the patient's MDS/AML cells ([9]; 10 μM in liquid culture, CFC 10 days): inhibited cell proliferation and clonogenic capacity | p53 target gene expression (qRT-PCR) ([10]; MOLM13, 24 hours of treatment, n = 3): up-regulated CDKN1A, MDM2, BAX, PUMA, and GADD45a in a dose-dependent manner | p53, p21 and MDM2 protein ([10]; Western blot, primary AML cells and AML cell lines expressing WT p53, not in p53 null AML cells): stabilized p53 and up-regulated its downstream targets p21 and MDM2 in p53 WT cells in a dose-dependent manner | proportion of cells harboring an active TS [11]: ~ 44% | colony-forming capacity (CFC) ([12]; 0.5 pM (so in the source), methylcellulose, 10 days, n = 3): abrogated the colony-forming capacity | serial replating capacity ([12]; 0.5 μM, three of the five AML cell lines): completely abrogated serial replating capacity | potency in CFC and serial replating assays versus comparators ([12]; AML cell lines): increased potency over RG7388 and all other p53- stapled peptide prototypes tested | inhibition of clonogenicity versus RG7388 ([12]; all five AML cell lines): greater inhibition of clonogenicity compared to RG7388 | cell proliferation [13]: no effect on cell proliferation | grade 3/4 thrombocytopenias [14]: no reported grade 3/4 thrombocytopenias | frequency of HSCs and progenitors versus control [15]: no significant differences | thrombocytopenia (platelet counts) ([15]; n = 10): did not show signs of thrombocytopenia | neutrophils ([15]; n = 10, within the normal range): only a modest reduction in neutrophils | caspase-3/7 activity [16]: concentration- dependent increase | p21 protein [17]: concentration- dependent increase | thrombocytopenia on treatment ([18]; 3.1 mg/kg IV once weekly, one patient): no grade 3 or 4 thrombocytopenia was observed | circulating CD34+ leukemic blasts ([18]; 3.1 mg/kg IV once weekly, weeks 2 and 3): less than 1% | circulating CD34+ leukemic blasts ([18]; 3.1 mg/kg IV once weekly, within 12 hours, initially 5 to 7%): 1.5 to 2.5% | p53 protein (intracellular FACS) ([18]; 3.1 mg/kg IV, first administration): rapidly induced in CD34^+ leukemic blasts, but not in healthy lymphocytes

SMILES: CN1CCN(c2ccc([N+](=O)[O-])c3no[n+]([O-])c23)CC1 [NSC-207895]
expression of MDMX [19]: downregulated expression of MDMX

SMILES: COc1ccc(C2=N[C@@H](c3ccc(Cl)cc3)[C@@H](c3ccc(Cl)cc3)N2C(=O)N2CCNC(=O)C2)c(OC(C)C)c1 [Nutlin-3]
bioavailability [20]: poor bioavailability

SMILES: CCOc1cc(C(C)(C)C)ccc1C1=N[C@@](C)(c2ccc(Cl)cc2)[C@@](C)(c2ccc(Cl)cc2)N1C(=O)N1CCN(CCCS(C)(=O)=O)CC1 [RG7112]
affinity for MDMX [21]: lack of affinity for MDMX

wash-off t1/2 from MDM2-coated surface [22]: 2 to 3 min | binding to MDMX [23]: did not bind to MDMX at all
SMILES: COc1cc(C(=O)O)ccc1NC(=O)[C@@H]1N[C@@H](CC(C)(C)C)[C@](C#N)(c2ccc(Cl)cc2F)[C@H]1c1cccc(Cl)c1F [RG7388]
affinity for MDMX [21]: lack of affinity for MDMX
